This is an account of results in patent US12060349B2, “Glucosylceramide synthase inhibitors” (Genzyme Corporation, priority 2012, dated 2024).

pIC50: −log10 of the molar value. Like-named read-outs stand apart in the source and are kept apart here. Where only a bound is given, the exact number is not on record here.

As a reminder, the pIC50 is the IC50 on a negative log10 scale, so that one unit is a factor of ten.

Assay [1] deals with T1, glucosylceramide synthase (Homo sapiens, UniProt Q16739).
T1 construct: Microsomes were isolated from A375 human melanoma cells; endogenous in cells; host or cells: A375 human melanoma cells (microsomal fraction, 100,000 g pellet)
T1 sequence (Q16739 1-394): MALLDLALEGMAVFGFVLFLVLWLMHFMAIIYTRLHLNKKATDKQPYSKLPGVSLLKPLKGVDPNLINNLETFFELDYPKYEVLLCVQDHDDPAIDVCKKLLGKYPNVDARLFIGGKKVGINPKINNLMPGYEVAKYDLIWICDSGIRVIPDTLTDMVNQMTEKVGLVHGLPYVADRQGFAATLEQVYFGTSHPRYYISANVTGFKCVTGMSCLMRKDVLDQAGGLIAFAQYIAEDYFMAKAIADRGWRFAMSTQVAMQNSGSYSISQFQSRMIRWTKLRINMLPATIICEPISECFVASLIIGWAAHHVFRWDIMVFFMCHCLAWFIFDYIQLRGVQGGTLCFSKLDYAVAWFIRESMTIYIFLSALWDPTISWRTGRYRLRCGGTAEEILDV
The assay can be described thus: microsomal assay measuring conversion of ceramide to glucosylceramide by HPLC (GCS IC50). The format is biochemical. Particulars: concentration causing 50% inhibition of glucosylceramide synthase activity. In outline:
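Microsomal preparation assayed for glucosylceramide synthase by direct HPLC measurement of ceramide conversion to glucosylceramide. GCS IC50 is the compound concentration giving 50% inhibition of enzyme activity.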

Assay [2] has as its system GM3 expression on the cell surface, B16 mouse melanoma cells. Kind of assay: cell based phenotypic assay, cell surface GM3 by antibody mediated immunofluorescence, B16 (GM3 B16 IC50). The following applies: Mus musculus, 50% inhibition of GM3 expression on the cell surface. Put shortly:
(§1)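 Both lines undergo the phenotypic GM3 assay, and viability is recorded from that same cell-based run.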

Assay [3] concerns GM3 expression on the cell surface, C32 human melanoma cells. The assay can be described thus: cell based phenotypic assay, cell surface GM3 by antibody mediated immunofluorescence, C32 (GM3 C32 IC50). Particulars: Homo sapiens, 50% inhibition of GM3 expression on the cell surface. In outline: as §1
For another assay, the system named is B16 mouse melanoma cells. Kind of assay: cell viability in the B16 cell-based assay (Viability, B16 IC50). Particulars: Mus musculus. In outline: (§2)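 Two melanoma lines, mouse B16 and human C32, were treated and surface GM3 quantified by antibody immunofluorescence for IC50. A parallel viability readout gives the concentration killing 50% of cells, with values over 10 indicating no cell death.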

The subject of a further assay is C32 human melanoma cells. Kind of assay: cell viability in the C32 cell-based assay (Viability, C32 IC50). The following applies: Homo sapiens, concentration causing 50% cell death, values greater than 10 represent a lack of cell death. In outline: as §2
[4] abbreviates: read-out: GM3 B16 IC50, B16 mouse melanoma cells.
Setting [5] is: read-out: GM3 C32 IC50, C32 human melanoma cells.
[6] abbreviates: B16, read-out: Viability, B16 IC50.
Where [7] appears, read: C32, read-out: Viability, C32 IC50, C32 cells.
The mark [8] stands for this setting: B16 mouse melanoma cells, read-out: GM3 B16 IC50.
Setting [9] is: C32 human melanoma cells, read-out: GM3 C32 IC50.
The mark [10] stands for this setting: B16, B16 cells, concentration causing 50% cell death, values greater than 10 represent a lack of cell death, read-out: Viability, B16 IC50.
[11] abbreviates: C32, C32 cells, read-out: Viability, C32 IC50.

Turning to `CNC(=O)c1ccc(Oc2ccc(C(C)(C)NC(=O)OC3CN4CCC3CC4)cc2)cc1` (centres unmarked) [Example 291, Quinuclidin-3-yl 2-(4-(4-(methylcarbamoyl)phenoxy)phenyl)propan-2-ylcarbamate], the pIC50 in assay [1] was 5.72; in assay [2] (setting [4]), 5.64; in assay [3] (setting [5]), 7.04; in the assay with B16 mouse melanoma cells (setting [6]), not above 5.00; with C32 human melanoma cells (setting [7]), 5.50.

For the compound `CNC(=O)c1ccc(Oc2ccc(C(C)(C)NC(=O)OC3CCN4CCC3CC4)cc2)cc1` (centres unmarked) [Example 292, 1-Aza-bicyclo[3.2.2]nonan-4-yl 2-(4-(4-(methylcarbamoyl)phenoxy)phenyl)propan-2-ylcarbamate], the pIC50 in assay [1] is 6.68; in assay [2] (setting [8]), 5.91; in assay [3] (setting [9]) it was 7.39; in the assay on B16 mouse melanoma cells (setting [10]) it was not above 5.00; in the assay on C32 human melanoma cells (setting [11]) it was not above 5.00.

As for `CNC(=O)c1ccc(Oc2ccc(C(C)(C)NC(=O)NC3(C)CN4CCC3CC4)cc2)cc1` (centres unmarked) [Example 293, N-Methyl-4-(4-(2-(3-(3-methylquinuclidin-3-yl)ureido)propan-2-yl)phenoxy)benzamide], the pIC50 was 6.73 in assay [1]; 5.27 in assay [2] (setting [8]); 7.34 in assay [3] (setting [9]); not above 5.00 with B16 mouse melanoma cells (setting [10]); 6.00 with C32 human melanoma cells (setting [11]).

Regarding `CNC(=O)c1ccc(Oc2ccc(C(C)(C)NC(=O)NC3(C)CCN4CCC3CC4)cc2)cc1` (centres unmarked) [Example 294, N-Methyl-4-(4-(2-(3-(4-methyl-1-aza-bicyclo[3.2.2]nonan-4-yl)ureido)propan-2-yl)phenoxy)benzamide], the negative logarithm of the IC50 (pIC50) in assay [1] was 7.91; in assay [2] (setting [8]) it was 6.07; in assay [3] (setting [9]), 8.15; with B16 mouse melanoma cells (setting [10]) it was not above 5.00; with C32 human melanoma cells (setting [11]), 6.00.

In the case of `CNC(=O)c1cccc(Oc2cccc(C(C)(C)NC(=O)NC3(C)CN4CCC3CC4)c2)c1` (centres unmarked) [Example 296, N-Methyl-3-(3-(2-(3-(3-methylquinuclidin-3-yl)ureido)propan-2-yl)phenoxy)benzamide], the pIC50 was 6.70 in assay [1]; 5.26 in assay [2] (setting [8]); 6.81 in assay [3] (setting [9]); not above 5.00 in the assay on B16 mouse melanoma cells (setting [10]); not above 5.00 in the assay on C32 human melanoma cells (setting [11]).

For the compound `CNC(=O)c1cccc(Oc2cccc(C(C)(C)NC(=O)NC3(C)CCN4CCC3CC4)c2)c1` (centres unmarked) [Example 297, N-Methyl-3-(3-(2-(3-(4-methyl-1-aza-bicyclo[3.2.2]nonan-4-yl)ureido)propan-2-yl)phenoxy)benzamide], the pIC50 is 7.99 in assay [1]; 5.86 in assay [2] (setting [8]); 7.88 in assay [3] (setting [9]); not above 5.00 in the assay with B16 mouse melanoma cells (setting [10]); 6.00 in the assay on C32 human melanoma cells (setting [11]).

As for `CNC(=O)c1cccc(Oc2cccc(C(C)(C)NC(=O)OC3CCN4CCC3CC4)c2)c1` (centres unmarked) [Example 298, 1-Aza-bicyclo[3.2.2]nonan-4-yl 2-(3-(3-(methylcarbamoyl)phenoxy)phenyl)propan-2-ylcarbamate], the negative-log IC50 (pIC50) in assay [1] was 6.86; in assay [2] (setting [8]), 5.96; in assay [3] (setting [9]) it was 7.51; in the assay with B16 mouse melanoma cells (setting [10]) it was not above 5.00; in the assay with C32 human melanoma cells (setting [11]), 5.50.

On to `CC(C)(NC(=O)OC1CCN2CCC1CC2)c1ccc(Oc2ccc(C(=O)N3CCCCC3)cc2)cc1` (centres unmarked) [Example 299, 1-Aza-bicyclo[3.2.2]nonan-4-yl 2-(4-(4-(piperidine-1-carbonyl)phenoxy)phenyl) propan-2-ylcarbamate], for which the pIC50 was 7.81 in assay [1]; 6.72 in assay [2] (setting [8]); 8.44 in assay [3] (setting [9]); not above 5.00 in the assay on B16 mouse melanoma cells (setting [10]); 6.00 in the assay with C32 human melanoma cells (setting [11]).

Regarding `CC(C)(NC(=O)NC1(C)CCN2CCC1CC2)c1ccc(Oc2ccc(C(=O)N3CCCCC3)cc2)cc1` (centres unmarked) [Example 300, 1-(4-Methyl-1-aza-bicyclo[3.2.2]nonan-4-yl)-3-(2-(4-(4-(piperidine-1-carbonyl)phenoxy)phenyl)propan-2-yl)urea], the pIC50 in assay [1] was 8.16; in assay [2] (setting [8]), 7.06; in assay [3] (setting [9]), 8.81; with B16 mouse melanoma cells (setting [10]), not above 5.00; with C32 human melanoma cells (setting [11]), 6.50.

Take `CC(C)(NC(=O)OC1CCN2CCC1CC2)c1ccc(Oc2ccc(C(=O)N3CCC(F)(F)CC3)cc2)cc1` (centres unmarked) [Example 301, 1-Azabicyclo[3.2.2]nonan-4-yl 2-(4-(4-(4,4-difluoropiperidine-1-carbonyl)phenoxy)phenyl)propan-2-ylcarbamate]: the pIC50 was 7.76 in assay [1]; 7.31 in assay [2] (setting [8]); 8.47 in assay [3] (setting [9]); not above 5.00 in the assay with B16 mouse melanoma cells (setting [10]); 6.00 in the assay on C32 human melanoma cells (setting [11]).

Turning to `CC(C)(NC(=O)NC1(C)CCN2CCC1CC2)c1ccc(Oc2ccc(C(=O)N3CCC(F)(F)CC3)cc2)cc1` (centres unmarked) [Example 302, 1-(2-(4-(4-(4,4-Difluoropiperidine-1-carbonyl)phenoxy)phenyl)propan-2-yl)-3-(4-methyl-1-azabicyclo[3.2.2]nonan-4-yl)urea], the negative-log IC50 (pIC50) in assay [1] is 8.37; in assay [2] (setting [8]), 7.50; in assay [3] (setting [9]) it was 8.83; with B16 mouse melanoma cells (setting [10]), not above 5.00; in the assay with C32 human melanoma cells (setting [11]), 6.00.

As to `CC(C)(NC(=O)NC1(C)CCN2CCC1CC2)c1ccc(Oc2ccc(C(=O)N3CC(F)(F)C3)cc2)cc1` (centres unmarked) [Example 303, 1-(2-(4-(4-(3,3-Difluoroazetidine-1-carbonyl)phenoxy)phenyl)propan-2-yl)-3-(4-methyl-1-aza-bicyclo[3.2.2]nonan-4-yl)urea], the pIC50 was 8.12 in assay [1]; 7.41 in assay [2] (setting [8]); 8.91 in assay [3] (setting [9]); not above 5.00 with B16 mouse melanoma cells (setting [10]); 6.50 with C32 human melanoma cells (setting [11]).

Regarding `CC(C)(NC(=O)OC1CN2CCC1CC2)c1ccc(C(=O)N2CCN(c3ccccc3)CC2)cc1` (centres unmarked) [Example 304, Quinuclidin-3-yl 2-(4-(4-phenylpiperazine-1-carbonyl)phenyl)propan-2-ylcarbamate], the pIC50 in assay [1] was 5.76; in assay [2] (setting [4]) it was 6.45; in assay [3] (setting [5]), 7.02; in the assay on B16 mouse melanoma cells (setting [6]), not above 5.00; with C32 human melanoma cells (setting [7]), not above 5.00.

With `CCC1(NC(=O)NC(C)(C)c2ccc(C(=O)N3CCN(c4ccccc4)CC3)cc2)CN2CCC1CC2` (centres unmarked) [Example 306, 1-(3-Ethylquinuclidin-3-yl)-3-(2-(4-(4-phenylpiperazine-1-carbonyl)phenyl)propan-2-yl)urea], the negative logarithm of the IC50 (pIC50) is 7.02 in assay [1]; 6.59 in assay [2] (setting [8]); 7.49 in assay [3] (setting [9]); not above 5.00 in the assay on B16 mouse melanoma cells (setting [10]); 5.50 with C32 human melanoma cells (setting [11]).

As for `COCCOc1ccc(-c2ccc(C(C)(C)NC(=O)OC3CN4CCC3CC4)cc2)cn1` (centres unmarked) [Example 307, Quinuclidin-3-yl 2-(4-(6-(2-methoxyethoxy)pyridin-3-yl)phenyl)propan-2-ylcarbamate], the pIC50 in assay [1] is 6.13; in assay [2] (setting [4]), 5.36; in assay [3] (setting [5]), 7.01; with B16 mouse melanoma cells (setting [6]) it was not above 5.00; with C32 human melanoma cells (setting [7]) it was not above 5.00.

Consider `COCCOc1ccc(-c2ccc(C(C)(C)NC(=O)OC3CN4CCC3CC4)cc2)nc1` (centres unmarked) [Example 308, Quinuclidin-3-yl 2-(4-(5-(2-methoxyethoxy)pyridin-2-yl)phenyl)propan-2-ylcarbamate], for which the negative-log IC50 (pIC50) in assay [1] was 6.60; in assay [2] (setting [4]), 6.50; in assay [3] (setting [5]) it was 7.45; in the assay with B16 mouse melanoma cells (setting [6]) it was 5.11; in the assay with C32 human melanoma cells (setting [7]), 6.00.
